Laboratory results published in US12145947B2, “Pyrimidine based modulators and uses thereof” (Quanta Therapeutics, Inc., priority 2022, dated 2024).
pIC50: −log10 of the molar value.

The molecules below were run against T1, KRAS G12D/RAF1 (Homo sapiens, UniProt P01116, G12D) (assay: Protein-protein interaction (PPI) HTRF assay KRAS G12D/RAF1). Details: Table 4.
T1 construct: His6-MBP (N, cleaved yes); made in house; host or cells: E. coli
T1 sequence (P01116 with tags, fused parts or gaps isoform P01116-2 G12D): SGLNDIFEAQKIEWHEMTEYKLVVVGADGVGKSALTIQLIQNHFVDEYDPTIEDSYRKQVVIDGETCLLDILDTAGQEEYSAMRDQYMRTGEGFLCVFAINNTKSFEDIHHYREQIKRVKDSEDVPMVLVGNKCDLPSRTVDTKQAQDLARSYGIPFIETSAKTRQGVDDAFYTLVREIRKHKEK
Format: binding
Procedure, shortened: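 HTRF pairing of His-tagged RAF1 (52-131) plus Tb-cryptate donor with GppNHp-exchanged biotin-RAS (KRAS 1-169 wt/G12D/G12V, NRAS wt) plus streptavidin-d2 acceptor; compound sits 30 min with RAS first, then 1 h RT with RAF1. IC50 derived from 665/615 ratio, untagged RAF1 defining full inhibition.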
`N#Cc1c(N2C[C@H]3CC[C@@H](C2)N3)nc(OCC2(CN3CCOCC3)CC2)nc1N1CC2(CCc3sc(N)nc32)C1` [Compound 23, 4-(2-aminospiro[5,6-dihydrocyclopenta[d]thiazole-4,3′-azetidine]-1′-yl)-2-[[1-(morpholinomethyl)cyclopropyl]methoxy]-6-[(1R,5S)-3,8-diazabicyclo[3.2.1]octan-3-yl]pyrimidine-5-carbonitrile] gave a pIC50 of 5.00 to 6.00. `N#Cc1cc2n(n1)CCCN(c1nc(OC[C@@]34CCCN3C[C@H](F)C4)nc(N3CC4(CCc5sc(N)c(C#N)c54)C3)c1C#N)C2` [Compound 24, 2-amino-1′-[5-cyano-6-(2-cyano-4,6,7,8-tetrahydropyrazolo[1,5-a][1,4]diazepin-5-yl)-2-[[(2R,8S)-2-fluoro-1,2,3,5,6,7-hexahydropyrrolizin-8-yl]methoxy]pyrimidin-4-yl]spiro[5,6-dihydrocyclopenta[b]thiophene-4,3′-azetidine]-3-carbonitrile] showed a pIC50 of 4.00 to 5.00. Work on `N#Cc1c(N2C[C@H]3CC[C@@H](C2)N3)nc(OC[C@@]23CCCN2C[C@H](F)C3)nc1N1CC2(CCc3sc(N)c(C#N)c32)C1` [Compound 25, 2-amino-1′-[5-cyano-6-(3,8-diazabicyclo[3.2.1]octan-3-yl)-2-[[(2R,8S)-2-fluoro-1,2,3,5,6,7-hexahydropyrrolizin-8-yl]methoxy]pyrimidin-4-yl]spiro[5,6-dihydrocyclopenta[b]thiophene-4,3′-azetidine]-3-carbonitrile] yielded a pIC50 of 6.00 to 7.00. With `CN(C)CC(F)(F)COc1nc(N2C[C@H]3CC[C@@H](C2)N3)c(C#N)c(N2CC3(CCc4sc(N)c(C#N)c43)C2)n1` [Compound 26, 2-amino-1′-[5-cyano-6-(3,8-diazabicyclo[3.2.1]octan-3-yl)-2-[3-(dimethylamino)-2,2-difluoro-propoxy]pyrimidin-4-yl]spiro[5,6-dihydrocyclopenta[b]thiophene-4,3′-azetidine]-3-carbonitrile] the pIC50 was 4.00 to 5.00. Molecule `C[C@@]1(O)CCCN(c2nc(OC[C@@]34CCCN3C[C@H](F)C4)nc(N3CC4(CCc5sc(N)c(C#N)c54)C3)c2C#N)C1` [Compound 27, 2-amino-1′-[5-cyano-2-[[(2R,8S)-2-fluoro-1,2,3,5,6,7-hexahydropyrrolizin-8-yl]methoxy]-6-[(3R)-3-hydroxy-3-methyl-1-piperidyl]pyrimidin-4-yl]spiro[5,6-dihydrocyclopenta[b]thiophene-4,3′-azetidine]-3-carbonitrile] has a pIC50 of 5.00 to 6.00. `Cn1c(-c2cc3n(n2)CCCN(c2nc(OC[C@@]45CCCN4C[C@H](F)C5)nc(N4CC5(CCc6sc(N)c(C#N)c65)C4)c2C#N)C3)nc2ccccc21` [Compound 29, 2-amino-1′-[5-cyano-6-[2-(1-methylbenzimidazol-2-yl)-4,6,7,8-tetrahydropyrazolo[1,5-a][1,4]diazepin-5-yl]-2-[[(2R,8S)-2-fluoro-1,2,3,5,6,7-hexahydropyrrolizin-8-yl]methoxy]pyrimidin-4-yl]spiro[5,6-dihydrocyclopenta[b]thiophene-4,3′-azetidine]-3-carbonitrile] showed a pIC50 of 4.00 to 5.00. Molecule `Cn1c(-c2nn3c(c2Cl)CN(c2nc(OC[C@@]45CCCN4C[C@H](F)C5)nc(N4CC5(CCc6sc(N)c(C#N)c65)C4)c2C#N)CCC3)nc2ccccc21` [Compound 30] has a pIC50 of 4.00 to 5.00. Work on `Cn1c(-c2nn3c(c2Cl)CN(c2nc(OC[C@@]45CCCN4C[C@H](F)C5)nc(N4CC5(CCc6sc(N)c(C#N)c65)C4)c2C#N)CCC3)nc2c(F)cccc21` [Compound 32, 2-amino-1′-[6-[3-chloro-2-(4-fluoro-1-methyl-benzimidazol-2-yl)-4,6,7,8-tetrahydropyrazolo[1,5-a][1,4]diazepin-5-yl]-5-cyano-2-[[(2R,8S)-2-fluoro-1,2,3,5,6,7-hexahydropyrrolizin-8-yl]methoxy]pyrimidin-4-yl]spiro[5,6-dihydrocyclopenta[b]thiophene-4,3′-azetidine]-3-carbonitrile] yielded a pIC50 of 4.00 to 5.00. For `N#Cc1c(N2CCCC(C#N)CC2)nc(OC[C@@]23CCCN2C[C@H](F)C3)nc1N1CC2(CCc3sc(N)c(C#N)c32)C1` (stereo partly drawn) [Compound 33, 2-amino-1′-[5-cyano-6-(4-cyanoazepan-1-yl)-2-[[(2R,8S)-2-fluoro-1,2,3,5,6,7-hexahydropyrrolizin-8-yl]methoxy]pyrimidin-4-yl]spiro[5,6-dihydrocyclopenta[b]thiophene-4,3′-azetidine]-3-carbonitrile], the pIC50 was 5.00 to 6.00. With `N#Cc1c(N2C[C@H]3CC[C@@H](C2)N3)nc(OCC2(CN3CCC(F)(F)CC3)CC2)nc1N1CC2(CCc3sc(N)c(C#N)c32)C1` [Compound 34, 2-amino-1′-[5-cyano-6-(3,8-diazabicyclo[3.2.1]octan-3-yl)-2-[[1-[(4,4-difluoro-1-piperidyl)methyl]cyclopropyl]methoxy]pyrimidin-4-yl]spiro[5,6-dihydrocyclopenta[b]thiophene-4,3′-azetidine]-3-carbonitrile] the pIC50 was 6.00 to 7.00. With `N#Cc1c(N2CCCC(O)CC2)nc(OC[C@@]23CCCN2C[C@H](F)C3)nc1N1CC2(CCc3sc(N)c(C#N)c32)C1` (stereo partly drawn) [Compound 40, 2-amino-1′-[5-cyano-6-(4-hydroxyazepan-1-yl)-2-[[(2R,8S)-2-fluoro-1,2,3,5,6,7-hexahydropyrrolizin-8-yl]methoxy]pyrimidin-4-yl]spiro[5,6-dihydrocyclopenta[b]thiophene-4,3′-azetidine]-3-carbonitrile] the pIC50 was 5.00 to 6.00. `N#Cc1c(N2C[C@H]3CC[C@@H](C2)N3)nc(OCC2(CN3CCOCC3)CC2)nc1N1CC2(CCCc3sc(N)c(C#N)c32)C1` [Compound 41, 2-amino-1′-[5-cyano-2-[[1-(morpholinomethyl)cyclopropyl]methoxy]-6-[(1R,5S)-3,8-diazabicyclo[3.2.1]octan-3-yl]pyrimidin-4-yl]spiro[6,7-dihydro-5H-benzothiophene-4,3′-azetidine]-3-carbonitrile] showed a pIC50 of 6.00 to 7.00. `N#Cc1c(N2C[C@H]3COC[C@@H](C2)N3)nc(OCC2(CN3CCOCC3)CC2)nc1N1CC2(CCc3sc(N)c(C#N)c32)C1` [Compound 42, 2-amino-1′-[5-cyano-2-[[1-(morpholinomethyl)cyclopropyl]methoxy]-6-(3-oxa-7,9-diazabicyclo[3.3.1]nonan-7-yl)pyrimidin-4-yl]spiro[5,6-dihydrocyclopenta[b]thiophene-4,3′-azetidine]-3-carbonitrile] showed a pIC50 of 5.00 to 6.00. `N#Cc1c(N2CC3COCC(C2)N3)nc(OC[C@]23CCCN2C[C@@H](F)C3)nc1N1CC2(CCc3sc(N)c(C#N)c32)C1` [Compound 43, 2-amino-1′-[5-cyano-2-[[(2S,8R)-2-fluoro-1,2,3,5,6,7-hexahydropyrrolizin-8-yl]methoxy]-6-(3-oxa-7,9-diazabicyclo[3.3.1]nonan-7-yl)pyrimidin-4-yl]spiro[5,6-dihydrocyclopenta[b]thiophene-4,3′-azetidine]-3-carbonitrile] gave a pIC50 of 5.00 to 6.00. `CC1CC2(CN(c3nc(OCC4(CN5CCOCC5)CC4)nc(N4C[C@H]5CC[C@@H](C4)N5)c3C#N)C2)c2c1sc(N)c2C#N` (stereo partly drawn) [Compound 45, 2-amino-1-[5-cyano-2-[[1-(morpholinomethyl)cyclopropyl]methoxy]-6-[(1R,5S)-3,8-diazabicyclo[3.2.1]octan-3-yl]pyrimidin-4-yl]-6-methyl-spiro[5,6-dihydrocyclopenta[b]thiophene-4,3′-azetidine]-3-carbonitrile] showed a pIC50 of 6.00 to 7.00. In the case of `Cc1nc(-c2nn3c(c2Cl)CN(c2nc(OC[C@@]45CCCN4C[C@H](F)C5)nc(N4CC5(CCc6sc(N)c(C#N)c65)C4)c2C#N)CCC3)no1` [Compound 46, 2-amino-1′-[6-[3-chloro-2-(5-methyl-1,2,4-oxadiazol-3-yl)-4,6,7,8-tetrahydropyrazolo[1,5-a][1,4]diazepin-5-yl]-5-cyano-2-[[(2R,8S)-2-fluoro-1,2,3,5,6,7-hexahydropyrrolizin-8-yl]methoxy]pyrimidin-4-yl]spiro[5,6-dihydrocyclopenta[b]thiophene-4,3′-azetidine]-3-carbonitrile], the pIC50 was 5.00 to 6.00. In the case of `CN(C)C1(COc2nc(N3C[C@H]4CC[C@@H](C3)N4)c(C#N)c(N3CC4(CCc5sc(N)c(C#N)c54)C3)n2)CC1` [Compound 47, 2-amino-1′-[5-cyano-6-[(1R,5S)-3,8-diazabicyclo[3.2.1]octan-3-yl]-2-[[1-(dimethylamino)cyclopropyl]methoxy]pyrimidin-4-yl]spiro[5,6-dihydrocyclopenta[b]thiophene-4,3′-azetidine]-3-carbonitrile], the pIC50 was 4.00 to 5.00. With `CN(CCOc1nc(N2C[C@H]3CC[C@@H](C2)N3)c(C#N)c(N2CC3(CCc4sc(N)c(C#N)c43)C2)n1)C1CCC1` [Compound 48, 2-amino-1′-[5-cyano-2-[2-[cyclobutyl(methyl)amino]ethoxy]-6-[(1R,5S)-3,8-diazabicyclo[3.2.1]octan-3-yl]pyrimidin-4-yl]spiro[5,6-dihydrocyclopenta[b]thiophene-4,3′-azetidine]-3-carbonitrile] the pIC50 was 4.00 to 5.00. `N#Cc1c(N2CCCC(=O)CC2)nc(OC[C@@]23CCCN2C[C@H](F)C3)nc1N1CC2(CCc3sc(N)c(C#N)c32)C1` [Compound 49, 2-amino-1′-[5-cyano-2-[[(2R,8S)-2-fluoro-1,2,3,5,6,7-hexahydropyrrolizin-8-yl]methoxy]-6-(4-oxoazepan-1-yl)pyrimidin-4-yl]spiro[5,6-dihydrocyclopenta[b]thiophene-4,3′-azetidine]-3-carbonitrile] showed a pIC50 of 4.00 to 5.00. Molecule `CN(C)CC1(COc2nc(N3C[C@H]4CC[C@@H](C3)N4)c(C#N)c(N3CC4(CCc5sc(N)c(C#N)c54)C3)n2)COC1` [Compound 52, 2-amino-1′-[5-cyano-6-[(1R,5S)-3,8-diazabicyclo[3.2.1]octan-3-yl]-2-[[3-[(dimethylamino)methyl]oxetan-3-yl]methoxy]pyrimidin-4-yl]spiro[5,6-dihydrocyclopenta[b]thiophene-4,3′-azetidine]-3-carbonitrile] has a pIC50 of 6.00 to 7.00.
